Reference: PMC9090415, “Discovery of small molecule inhibitors of Plasmodium falciparum apicoplast DNA polymerase” (Journal of Enzyme Inhibition and Medicinal Chemistry, 2022)

Target: P. falciparum apicoplast DNA polymerase (Pf-apPOL) (Plasmodium falciparum, UniProt Q8ILY1)
Assay: Fluorescence-based high-throughput DNA polymerase assay (molecular beacon), primary screen and dose-response
Format: biochemical
Settings: for DNA Pol: 90 min, 10 µM; for % inhibition Apo pol 10' 2.5 / % inhibition Apo pol 10' 5 / % inhibition Apo pol 10' 10 / % inhibition Apo pol 10' 20 / % inhibition Apo pol 10' 40 / % inhibition Apo pol 10' 80: read at 10'; for % inhibition Apol 90' 2.5 / % inhibition Apol 90' 5 / % inhibition Apol 90' 10 / % inhibition Apol 90' 20 / % inhibition Apol 90' 40 / % inhibition Apol 90' 80 / % inhibition ApPOL 90' 2.5 / % inhibition ApPOL 90' 5 / % inhibition ApPOL 90' 10 / % inhibition ApPOL 90' 20 / % inhibition ApPOL 90' 40 / % inhibition ApPOL 90' 80: read at 90'; for % inhibition apPOL 180' 2.5 / % inhibition apPOL 180' 5 / % inhibition apPOL 180' 10 / % inhibition apPOL 180' 20 / % inhibition apPOL 180' 40 / % inhibition apPOL 180' 80: read at 180'; for % inhibition Apo pol 5' 2.5 / % inhibition Apo pol 5' 5 / % inhibition Apo pol 5' 10 / % inhibition Apo pol 5' 20 / % inhibition Apo pol 5' 40 / % inhibition Apo pol 5' 80: read at 5'; for % inhibition Apol 40' 2.5 / % inhibition Apol 40' 5 / % inhibition Apol 40' 10 / % inhibition Apol 40' 20 / % inhibition Apol 40' 40 / % inhibition Apol 40' 80: read at 40'
Method in brief: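 Single-point screening used 10 µM compound with 20 nM polymerase, 20 nM hairpin substrate and 6 µM dNTPs for 90 min at 25 °C. Confirmatory titrations (2.5–80 µM) followed fluorescence at three times, and IC50 was derived from a fit including a cooperativity term n.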

[1] = 186 hits, DNA Pol (screen value), unit not given
[2] = 'DNA Pol' (screen value), unit not given

P. falciparum apicoplast DNA polymerase (Pf-apPOL), sequence (Q8ILY1 entry or part of it): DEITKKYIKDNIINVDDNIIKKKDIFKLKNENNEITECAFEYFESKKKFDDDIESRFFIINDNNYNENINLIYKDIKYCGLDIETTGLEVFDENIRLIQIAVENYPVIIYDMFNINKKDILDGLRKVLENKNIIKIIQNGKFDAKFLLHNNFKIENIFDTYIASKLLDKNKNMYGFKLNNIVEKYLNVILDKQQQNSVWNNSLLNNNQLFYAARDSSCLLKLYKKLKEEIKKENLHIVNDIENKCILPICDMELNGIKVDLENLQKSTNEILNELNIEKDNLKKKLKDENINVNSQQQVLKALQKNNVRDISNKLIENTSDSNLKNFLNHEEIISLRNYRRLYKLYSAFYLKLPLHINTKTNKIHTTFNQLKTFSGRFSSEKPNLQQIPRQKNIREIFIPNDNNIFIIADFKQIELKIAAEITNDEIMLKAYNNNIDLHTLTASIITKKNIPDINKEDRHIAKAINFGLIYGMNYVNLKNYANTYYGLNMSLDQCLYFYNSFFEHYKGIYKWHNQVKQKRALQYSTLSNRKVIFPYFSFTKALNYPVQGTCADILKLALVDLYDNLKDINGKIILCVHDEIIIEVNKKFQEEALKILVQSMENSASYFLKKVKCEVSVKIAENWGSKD

Compound: O=C1C(=Cc2ccccc2O)Oc2ccc(O)cc21 [KU0196475]
- DNA Pol ("DNA Pol" of the 186 hits list (screen value)): 17
- % inhibition Apo pol 10' (DRC-1, concentration 2.5): -5.1779%
- % inhibition Apo pol 10' (DRC-1, concentration 5): -7.445%
- % inhibition Apo pol 10' (DRC-1, concentration 10): 3.3875%
- % inhibition Apo pol 10' (DRC-1, concentration 20): 10.6699%
- % inhibition Apo pol 10' (DRC-1, concentration 40): 41.0111%
- % inhibition Apo pol 10' (DRC-1, concentration 80): 68.8562%
- % inhibition Apol 90' (DRC-1, concentration 2.5): -1.782%
- % inhibition Apol 90' (DRC-1, concentration 5): -1.611%
- % inhibition Apol 90' (DRC-1, concentration 10): 10.1306%
- % inhibition Apol 90' (DRC-1, concentration 20): 24.1034%
- % inhibition Apol 90' (DRC-1, concentration 40): 57.9717%
- % inhibition Apol 90' (DRC-1, concentration 80): 77.3146%
- % inhibition apPOL 180' (DRC-1, concentration 2.5): 3.033%
- % inhibition apPOL 180' (DRC-1, concentration 5): 3.658%
- % inhibition apPOL 180' (DRC-1, concentration 10): 21.7009%
- % inhibition apPOL 180' (DRC-1, concentration 20): 41.2058%
- % inhibition apPOL 180' (DRC-1, concentration 40): 72.3539%
- % inhibition apPOL 180' (DRC-1, concentration 80): 79.2388%
- % inhibition Apo pol 5' (DRC-2, concentration 2.5): -0.68%
- % inhibition Apo pol 5' (DRC-2, concentration 5): 0.901%
- % inhibition Apo pol 5' (DRC-2, concentration 10): 18%
- % inhibition Apo pol 5' (DRC-2, concentration 20): 28%
- % inhibition Apo pol 5' (DRC-2, concentration 40): 40%
- % inhibition Apo pol 5' (DRC-2, concentration 80): 45%
- % inhibition Apol 40' (DRC-2, concentration 2.5): 0.208%
- % inhibition Apol 40' (DRC-2, concentration 5): -7.41%
- % inhibition Apol 40' (DRC-2, concentration 10): 18%
- % inhibition Apol 40' (DRC-2, concentration 20): 33%
- % inhibition Apol 40' (DRC-2, concentration 40): 54%
- % inhibition Apol 40' (DRC-2, concentration 80): 65%
- % inhibition ApPOL 90' (DRC-2, concentration 2.5): 0%
- % inhibition ApPOL 90' (DRC-2, concentration 5): -14%
- % inhibition ApPOL 90' (DRC-2, concentration 10): 15%
- % inhibition ApPOL 90' (DRC-2, concentration 20): 29%
- % inhibition ApPOL 90' (DRC-2, concentration 40): 53%
- % inhibition ApPOL 90' (DRC-2, concentration 80): 66%
- % inhibition apPOL 180' (DRC-2, concentration 2.5): -3.48%
- % inhibition apPOL 180' (DRC-2, concentration 5): -88%
- % inhibition apPOL 180' (DRC-2, concentration 10): 8%
- % inhibition apPOL 180' (DRC-2, concentration 20): 17%
- % inhibition apPOL 180' (DRC-2, concentration 40): 45%
- % inhibition apPOL 180' (DRC-2, concentration 80): 63%
- DNA Pol (primary screen value, DNA Pol): 17

Compound: Cc1cccc(-c2noc(C(=O)NNC(=O)C(Cl)(Cl)Cl)n2)c1 [KU0266208]
- DNA Pol [1]: 74
- DNA Pol [2]: 74
- % inhibition Apo pol 10' 2.5 (DRC-1, concentration 2.5): 9.201%
- % inhibition Apo pol 10' 5 (DRC-1, concentration 5): 9.396%
- % inhibition Apo pol 10' 10 (DRC-1, concentration 10): 14.6387%
- % inhibition Apo pol 10' 20 (DRC-1, concentration 20): 23.1394%
- % inhibition Apo pol 10' 40 (DRC-1, concentration 40): 47.3506%
- % inhibition Apo pol 10' 80 (DRC-1, concentration 80): 74.0124%
- % inhibition Apol 90' 2.5 (DRC-1, concentration 2.5): -1.588%
- % inhibition Apol 90' 5 (DRC-1, concentration 5): -0.4833%
- % inhibition Apol 90' 10 (DRC-1, concentration 10): 4.634%
- % inhibition Apol 90' 20 (DRC-1, concentration 20): 14.9894%
- % inhibition Apol 90' 40 (DRC-1, concentration 40): 39.8547%
- % inhibition Apol 90' 80 (DRC-1, concentration 80): 66.9528%
- % inhibition apPOL 180' 2.5 (DRC-1, concentration 2.5): -5.775%
- % inhibition apPOL 180' 5 (DRC-1, concentration 5): -5.2438%
- % inhibition apPOL 180' 10 (DRC-1, concentration 10): -0.4994%
- % inhibition apPOL 180' 20 (DRC-1, concentration 20): 8.812%
- % inhibition apPOL 180' 40 (DRC-1, concentration 40): 34.7216%
- % inhibition apPOL 180' 80 (DRC-1, concentration 80): 64.1117%
- % inhibition Apo pol 5' (DRC-2, concentration 10): 11%
- % inhibition Apol 40' (DRC-2, concentration 10): 11%
- % inhibition Apol 40' (DRC-2, concentration 20): 24%
- % inhibition ApPOL 90' (DRC-2, concentration 20): 24%
- % inhibition Apo pol 5' 2.5 (DRC-2, concentration 2.5): 4.48%
- % inhibition Apo pol 5' 5 (DRC-2, concentration 5): 5.63%
- % inhibition Apo pol 5' 10 (DRC-2, concentration 10): 11%
- % inhibition Apo pol 5' 20 (DRC-2, concentration 20): 21%
- % inhibition Apo pol 5' 40 (DRC-2, concentration 40): 36%
- % inhibition Apo pol 5' 80 (DRC-2, concentration 80): 49%
- % inhibition Apol 40' 2.5 (DRC-2, concentration 2.5): 4.33%
- % inhibition Apol 40' 5 (DRC-2, concentration 5): 4.64%
- % inhibition Apol 40' 10 (DRC-2, concentration 10): 11%
- % inhibition Apol 40' 20 (DRC-2, concentration 20): 24%
- % inhibition Apol 40' 40 (DRC-2, concentration 40): 44%
- % inhibition Apol 40' 80 (DRC-2, concentration 80): 58%
- % inhibition ApPOL 90' 2.5 (DRC-2, concentration 2.5): 3%
- % inhibition ApPOL 90' 5 (DRC-2, concentration 5): 2.46%
- % inhibition ApPOL 90' 10 (DRC-2, concentration 10): 10%
- % inhibition ApPOL 90' 20 (DRC-2, concentration 20): 24%
- % inhibition ApPOL 90' 40 (DRC-2, concentration 40): 45%
- % inhibition ApPOL 90' 80 (DRC-2, concentration 80): 60%
- % inhibition apPOL 180' 2.5 (DRC-2, concentration 2.5): -1%
- % inhibition apPOL 180' 5 (DRC-2, concentration 5): 1.1%
- % inhibition apPOL 180' 10 (DRC-2, concentration 10): 5.71%
- % inhibition apPOL 180' 20 (DRC-2, concentration 20): 20%
- % inhibition apPOL 180' 40 (DRC-2, concentration 40): 42%
- % inhibition apPOL 180' 80 (DRC-2, concentration 80): 59%

Compound: Cc1nc(C)c2c(n1)N(CC1CCCCC1)C(=O)CC2 [KU0218606]
- DNA Pol [1]: 50
- DNA Pol [2]: 50
- % inhibition Apo pol 10' 2.5 (DRC-1, concentration 2.5): 34.0428%
- % inhibition Apo pol 10' 5 (DRC-1, concentration 5): 39.9001%
- % inhibition Apo pol 10' 10 (DRC-1, concentration 10): 47.3749%
- % inhibition Apo pol 10' 20 (DRC-1, concentration 20): 48.9825%
- % inhibition Apo pol 10' 40 (DRC-1, concentration 40): 54.7667%
- % inhibition Apo pol 10' 80 (DRC-1, concentration 80): 55.4322%
- % inhibition Apol 90' 2.5 (DRC-1, concentration 2.5): 24.6813%
- % inhibition Apol 90' 5 (DRC-1, concentration 5): 31.9392%
- % inhibition Apol 90' 10 (DRC-1, concentration 10): 42.478%
- % inhibition Apol 90' 20 (DRC-1, concentration 20): 47.74%
- % inhibition Apol 90' 40 (DRC-1, concentration 40): 54.1171%
- % inhibition Apol 90' 80 (DRC-1, concentration 80): 56.5278%
- % inhibition apPOL 180' 2.5 (DRC-1, concentration 2.5): 16.0854%
- % inhibition apPOL 180' 5 (DRC-1, concentration 5): 24.5851%
- % inhibition apPOL 180' 10 (DRC-1, concentration 10): 35.963%
- % inhibition apPOL 180' 20 (DRC-1, concentration 20): 43.6778%
- % inhibition apPOL 180' 40 (DRC-1, concentration 40): 53.1041%
- % inhibition apPOL 180' 80 (DRC-1, concentration 80): 57.3534%
- % inhibition Apo pol 5' (DRC-2, concentration 5): 24%
- % inhibition Apo pol 5' (DRC-2, concentration 20): 27%
- % inhibition Apo pol 5' (DRC-2, concentration 40): 30%
- % inhibition Apo pol 5' (DRC-2, concentration 80): 27%
- % inhibition Apol 40' (DRC-2, concentration 2.5): 24%
- % inhibition Apol 40' (DRC-2, concentration 5): 30%
- % inhibition Apol 40' (DRC-2, concentration 40): 42%
- % inhibition ApPOL 90' (DRC-2, concentration 10): 38%
- % inhibition ApPOL 90' (DRC-2, concentration 20): 42%
- % inhibition apPOL 180' (DRC-2, concentration 20): 38%
- % inhibition apPOL 180' (DRC-2, concentration 40): 42%
- % inhibition Apo pol 5' 2.5 (DRC-2, concentration 2.5): 20%
- % inhibition Apo pol 5' 5 (DRC-2, concentration 5): 24%
- % inhibition Apo pol 5' 10 (DRC-2, concentration 10): 28%
- % inhibition Apo pol 5' 20 (DRC-2, concentration 20): 27%
- % inhibition Apo pol 5' 40 (DRC-2, concentration 40): 30%
- % inhibition Apo pol 5' 80 (DRC-2, concentration 80): 27%
- % inhibition Apol 40' 2.5 (DRC-2, concentration 2.5): 24%
- % inhibition Apol 40' 5 (DRC-2, concentration 5): 30%
- % inhibition Apol 40' 10 (DRC-2, concentration 10): 36%
- % inhibition Apol 40' 20 (DRC-2, concentration 20): 39%
- % inhibition Apol 40' 40 (DRC-2, concentration 40): 42%
- % inhibition Apol 40' 80 (DRC-2, concentration 80): 41%
- % inhibition ApPOL 90' 2.5 (DRC-2, concentration 2.5): 25%
- % inhibition ApPOL 90' 5 (DRC-2, concentration 5): 31%
- % inhibition ApPOL 90' 10 (DRC-2, concentration 10): 38%
- % inhibition ApPOL 90' 20 (DRC-2, concentration 20): 42%
- % inhibition ApPOL 90' 40 (DRC-2, concentration 40): 45%
- % inhibition ApPOL 90' 80 (DRC-2, concentration 80): 47%
- % inhibition apPOL 180' 2.5 (DRC-2, concentration 2.5): 18%
- % inhibition apPOL 180' 5 (DRC-2, concentration 5): 26%
- % inhibition apPOL 180' 10 (DRC-2, concentration 10): 34%
- % inhibition apPOL 180' 20 (DRC-2, concentration 20): 38%
- % inhibition apPOL 180' 40 (DRC-2, concentration 40): 42%
- % inhibition apPOL 180' 80 (DRC-2, concentration 80): 46%
